Data: ChEMBL document CHEMBL1201862, “PubChem BioAssay data set” (2004)
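These data come from cells grown in 96-well plates and exposed to compound for 48 hours at five concentrations. At the GI50, growth is halved.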 The source made the active and inactive calls. Cut-off read from the data, not from the text of the source: active = GI50 up to about 1.1 µM and inactive = higher.

What was measured:
Test in all cases: NCI-60 cell line screen, 48 h
[1] = test system: SF-268
[2] = test system: NCI-H460
[3] = test system: ACHN
[4] = test system: K562
[5] = test system: COLO 205
[6] = test system: MDA-N
[7] = test system: UACC-62
[8] = test system: MOLT-4
[9] = test system: SK-MEL-28
[10] = test system: SK-OV-3
[11] = test system: MCF7
[12] = test system: RXF 393
[13] = test system: PC-3
[14] = test system: DU-145
[15] = test system: IGROV-1
[16] = test system: Hs-578T
[17] = test system: HL-60
[18] = test system: RPMI-8226
[19] = test system: M14
[20] = test system: SN12C
[21] = test system: SW-620
[22] = test system: NCI/ADR-RES
[23] = test system: U-251
[24] = test system: HCC 2998
[25] = test system: HCT-116
[26] = test system: UO-31
[27] = test system: OVCAR-3
[28] = test system: UACC-257
[29] = test system: A498
[30] = test system: OVCAR-8
[31] = test system: BT-549
[32] = test system: NCI-H522
[33] = test system: HOP-92
[34] = test system: HOP-62
[35] = test system: CAKI-1
[36] = test system: OVCAR-4
[37] = test system: HT-29
[38] = test system: KM12
[39] = test system: SK-MEL-2
[40] = test system: MDA-MB-435
[41] = test system: NCI-H226
[42] = test system: A549
[43] = test system: HCT-15
[44] = test system: SR
[45] = test system: OVCAR-5
[46] = test system: SF-539
[47] = test system: NCI-H23
[48] = test system: SF-295
[49] = test system: Malme-3M
[50] = test system: EKVX
[51] = test system: 786-0
[52] = test system: LOX IMVI
[53] = test system: SNB-19
[54] = test system: TK-10
[55] = test system: SK-MEL-5
[56] = test system: T47D
[57] = test system: SNB-75
[58] = test system: CCRF-CEM
[59] = test system: MDA-MB-231

## CC[C@H]1C=CCC[C@@]2(C[C@@H]3CC[C@H]4[C@@H](C(=O)OCCCCCCCCCCCCCCCC(=O)N(CCCNC(C)=O)C[C@H](CCNC(C)=O)OC(C)=O)[C@@]5(CCC[C@@H](C)O5)NC(=[N+]34)N2)O1
[1]
  GI50: 1.66 µM (inactive)
[2]
  GI50: 1.6 µM (inactive)
[3]
  GI50: 1.89 µM (inactive)
[4]
  GI50: 0.708 µM (active)
[5]
  GI50: 1.28 µM (inactive)
[6]
  GI50: 1.69 µM (inactive)
[7]
  GI50: 1.85 µM (inactive)
[8]
  GI50: 1.23 µM (inactive)
[9]
  GI50: 1.28 µM (inactive)
[10]
  GI50: 1.74 µM (inactive)
[11]
  GI50: 1.46 µM (inactive)
[12]
  GI50: 1.79 µM (inactive)
[13]
  GI50: 1.07 µM (active)
[14]
  GI50: 1.57 µM (inactive)
[15]
  GI50: 1.31 µM (inactive)
[16]
  GI50: 1.93 µM (inactive)
[17]
  GI50: 1.14 µM (inactive)
[18]
  GI50: 0.227 µM (active)
[19]
  GI50: 1.73 µM (inactive)
[20]
  GI50: 2.01 µM (inactive)
[21]
  GI50: 1.53 µM (inactive)
[22]
  GI50: > 10 µM (inactive)
[23]
  GI50: 0.914 µM (active)
[24]
  GI50: 1.26 µM (inactive)
[25]
  GI50: 1.58 µM (inactive)
[26]
  GI50: 1.78 µM (inactive)
[27]
  GI50: 0.787 µM (active)
[28]
  GI50: 1.24 µM (inactive)
[29]
  GI50: 1.83 µM (inactive)
[30]
  GI50: 1.4 µM (inactive)
[31]
  GI50: 1.82 µM (inactive)
[32]
  GI50: 1.24 µM (inactive)
[33]
  GI50: 1.11 µM (active)
[34]
  GI50: 2 µM (inactive)
[35]
  GI50: 2.22 µM (inactive)
[36]
  GI50: 1.4 µM (inactive)
[37]
  GI50: 1.4 µM (inactive)
[38]
  GI50: 1.38 µM (inactive)
[39]
  GI50: 1.72 µM (inactive)
[40]
  GI50: 1.64 µM (inactive)
[41]
  GI50: 1.41 µM (inactive)
[42]
  GI50: 1.88 µM (inactive)
[43]
  GI50: 1.7 µM
[44]
  GI50: 1.56 µM (inactive)
[45]
  GI50: 1.51 µM (inactive)
[46]
  GI50: 1.48 µM (inactive)
[47]
  GI50: 1.58 µM (inactive)
[48]
  GI50: 1.86 µM (inactive)
[49]
  GI50: 1.54 µM (inactive)
[50]
  GI50: 0.861 µM (active)
[51]
  GI50: 1.98 µM (inactive)
[52]
  GI50: 1.64 µM (inactive)
[53]
  GI50: 1.62 µM (inactive)
[54]
  GI50: 1.56 µM (inactive)
[55]
  GI50: 1.3 µM (inactive)

## COc1ccc(C2CC(c3ccc(NS(=O)(=O)c4cc([N+](=O)[O-])ccc4C)cc3)=NN2S(=O)(=O)c2cc([N+](=O)[O-])ccc2C)cc1 (centres undefined)
[1]
  GI50: 22.8 µM (inactive)
[2]
  GI50: 32.4 µM (inactive)
[3]
  GI50: 63.4 µM (inactive)
[56]
  GI50: 71.4 µM (inactive)
[4]
  GI50: 36.1 µM (inactive)
[5]
  GI50: 51.4 µM (inactive)
[6]
  GI50: 35.8 µM (inactive)
[7]
  GI50: 26.4 µM (inactive)
[8]
  GI50: 33.3 µM (inactive)
[57]
  GI50: > 100 µM (inactive)
[9]
  GI50: > 100 µM (inactive)
[10]
  GI50: 85.3 µM (inactive)
[11]
  GI50: 39 µM (inactive)
[12]
  GI50: > 100 µM (inactive)
[13]
  GI50: 33.8 µM (inactive)
[14]
  GI50: > 100 µM (inactive)
[15]
  GI50: 44.4 µM (inactive)
[17]
  GI50: 51.6 µM (inactive)
[18]
  GI50: 23.6 µM (inactive)
[19]
  GI50: 41.1 µM (inactive)
[20]
  GI50: 43.5 µM (inactive)
[21]
  GI50: 72.9 µM (inactive)
[22]
  GI50: 40.8 µM (inactive)
[23]
  GI50: 36.8 µM (inactive)
[24]
  GI50: 10.5 µM (inactive)
[25]
  GI50: 32.7 µM (inactive)
[26]
  GI50: 32.1 µM (inactive)
[27]
  GI50: 33.4 µM (inactive)
[28]
  GI50: 30.6 µM (inactive)
[29]
  GI50: 49.3 µM (inactive)
[30]
  GI50: 71.9 µM (inactive)
[31]
  GI50: 36 µM (inactive)
[32]
  GI50: 22.3 µM (inactive)
[33]
  GI50: 34.3 µM (inactive)
[34]
  GI50: 80 µM (inactive)
[35]
  GI50: 54.2 µM (inactive)
[36]
  GI50: 40 µM (inactive)
[37]
  GI50: 50.4 µM (inactive)
[38]
  GI50: 46 µM (inactive)
[39]
  GI50: 35.6 µM (inactive)
[40]
  GI50: 46 µM (inactive)
[41]
  GI50: > 100 µM (inactive)
[42]
  GI50: 34.5 µM (inactive)
[58]
  GI50: 65.2 µM (inactive)
[43]
  GI50: 36.2 µM
[44]
  GI50: 51.4 µM (inactive)
[45]
  GI50: > 100 µM (inactive)
[47]
  GI50: 22.4 µM (inactive)
[48]
  GI50: 33 µM (inactive)
[49]
  GI50: 34.8 µM (inactive)
[50]
  GI50: 39.7 µM (inactive)
[51]
  GI50: 88.5 µM (inactive)
[52]
  GI50: 68.1 µM (inactive)
[53]
  GI50: 61.2 µM (inactive)
[59]
  GI50: 43.6 µM (inactive)
[54]
  GI50: 52.6 µM (inactive)
[55]
  GI50: 42.2 µM (inactive)

## CCn1nc(C)c2c1C(=O)NC(C)C(=O)N2 (centres undefined)
[1]
  GI50: > 100 µM (inactive)
[2]
  GI50: > 100 µM (inactive)
[3]
  GI50: > 100 µM (inactive)
[5]
  GI50: > 100 µM (inactive)
[6]
  GI50: > 100 µM (inactive)
[7]
  GI50: > 100 µM (inactive)
[57]
  GI50: > 100 µM (inactive)
[9]
  GI50: > 100 µM (inactive)
[10]
  GI50: > 100 µM (inactive)
[12]
  GI50: > 100 µM (inactive)
[13]
  GI50: > 100 µM (inactive)
[14]
  GI50: > 100 µM (inactive)
[15]
  GI50: > 100 µM (inactive)
[16]
  GI50: > 100 µM (inactive)
[19]
  GI50: > 100 µM (inactive)
[20]
  GI50: 36.6 µM (inactive)
[21]
  GI50: > 100 µM (inactive)
[23]
  GI50: > 100 µM (inactive)
[25]
  GI50: > 100 µM (inactive)
[26]
  GI50: > 100 µM (inactive)
[27]
  GI50: > 100 µM (inactive)
[28]
  GI50: > 100 µM (inactive)
[29]
  GI50: > 100 µM (inactive)
[30]
  GI50: > 100 µM (inactive)
[31]
  GI50: > 100 µM (inactive)
[32]
  GI50: > 100 µM (inactive)
[33]
  GI50: > 100 µM (inactive)
[35]
  GI50: > 100 µM (inactive)
[36]
  GI50: > 100 µM (inactive)
[37]
  GI50: > 100 µM (inactive)
[38]
  GI50: > 10 µM (inactive)
[40]
  GI50: > 100 µM (inactive)
[42]
  GI50: > 100 µM (inactive)
[43]
  GI50: 15.1 µM
[45]
  GI50: > 100 µM (inactive)
[46]
  GI50: > 100 µM (inactive)
[47]
  GI50: > 100 µM (inactive)
[48]
  GI50: > 100 µM (inactive)
[50]
  GI50: > 100 µM (inactive)
[53]
  GI50: > 100 µM (inactive)
[54]
  GI50: > 100 µM (inactive)
[55]
  GI50: > 100 µM (inactive)
